In PubChem BioAssay (NCI):
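Tested at 5 concentrations; 48 h exposure; 96-well plates; endpoints linearly interpolated, else capped at highest concentration. GI50 marks 50% less growth. TGI is the concentration that stops growth completely.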

Experiments:
Test in all cases: DTP human tumour cell line panel, 48 h
SK-MEL-5 melanoma = tested on: SK-MEL-5 melanoma
MOLT-4 leukemia = tested on: MOLT-4 leukemia
T-47D breast = tested on: T-47D breast
MDA-MB-435 = tested on: MDA-MB-435
OVCAR-3 ovarian = tested on: OVCAR-3 ovarian
NCI-H23 lung = tested on: NCI-H23 lung
RPMI-8226 leukemia = tested on: RPMI-8226 leukemia
SF-295 CNS = tested on: SF-295 CNS
HCT-15 colon = tested on: HCT-15 colon
CAKI-1 renal = tested on: CAKI-1 renal
NCI-H522 lung = tested on: NCI-H522 lung
SW-620 colon = tested on: SW-620 colon
SF-268 CNS = tested on: SF-268 CNS
A549 NSCLC = tested on: A549 NSCLC
M14 melanoma = tested on: M14 melanoma
CCRF-CEM leukemia = tested on: CCRF-CEM leukemia
U251 CNS = tested on: U251 CNS
UACC-62 melanoma = tested on: UACC-62 melanoma
SK-OV-3 ovarian = tested on: SK-OV-3 ovarian
HS 578T breast = tested on: HS 578T breast
DU-145 prostate = tested on: DU-145 prostate
MALME-3M melanoma = tested on: MALME-3M melanoma
LOX IMVI melanoma = tested on: LOX IMVI melanoma
TK-10 renal = tested on: TK-10 renal
HT29 colon = tested on: HT29 colon
SNB-75 CNS = tested on: SNB-75 CNS
OVCAR-5 ovarian = tested on: OVCAR-5 ovarian
HCT-116 colon = tested on: HCT-116 colon
SF-539 CNS = tested on: SF-539 CNS
786-0 renal = tested on: 786-0 renal
NCI-H226 lung = tested on: NCI-H226 lung
HCC-2998 colon = tested on: HCC-2998 colon
IGROV1 ovarian = tested on: IGROV1 ovarian
SR leukemia = tested on: SR leukemia
COLO 205 colon = tested on: COLO 205 colon
SK-MEL-28 melanoma = tested on: SK-MEL-28 melanoma
OVCAR-8 ovarian = tested on: OVCAR-8 ovarian
ACHN renal = tested on: ACHN renal
A498 renal = tested on: A498 renal
NCI-H460 lung = tested on: NCI-H460 lung
RXF 393 renal = tested on: RXF 393 renal
HOP-62 NSCLC = tested on: HOP-62 NSCLC
PC-3 prostate = tested on: PC-3 prostate
NCI/ADR-RES ovarian = tested on: NCI/ADR-RES ovarian
MDA-MB-231 breast = tested on: MDA-MB-231 breast
SN12C renal = tested on: SN12C renal
BT-549 breast = tested on: BT-549 breast
HOP-92 NSCLC = tested on: HOP-92 NSCLC
OVCAR-4 ovarian = tested on: OVCAR-4 ovarian
SNB-19 CNS = tested on: SNB-19 CNS
UACC-257 melanoma = tested on: UACC-257 melanoma
K-562 leukemia = tested on: K-562 leukemia
UO-31 renal = tested on: UO-31 renal
SK-MEL-2 melanoma = tested on: SK-MEL-2 melanoma
EKVX NSCLC = tested on: EKVX NSCLC
KM12 colon = tested on: KM12 colon

Compound: C=C1C(=O)O[C@H]2[C@H]1CC/C(COC(=O)NCc1c[nH]c3ccc(Br)cc13)=C\CC[C@@]1(C)O[C@@H]21
- GI50 (SK-MEL-5 melanoma): 1630 nM
- TGI (SK-MEL-5 melanoma): 2990 nM
- GI50 (MOLT-4 leukemia): 1700 nM
- TGI (MOLT-4 leukemia): 5510 nM
- GI50 (T-47D breast): 1240 nM
- TGI (T-47D breast): 2990 nM
- GI50 (MDA-MB-435): 1120 nM
- TGI (MDA-MB-435): 2550 nM
- GI50 (OVCAR-3 ovarian): 1010 nM
- TGI (OVCAR-3 ovarian): 2290 nM
- GI50 (NCI-H23 lung): 1660 nM
- TGI (NCI-H23 lung): 3350 nM
- GI50 (RPMI-8226 leukemia): 752 nM
- TGI (RPMI-8226 leukemia): 3570 nM
- GI50 (SF-295 CNS): 1600 nM
- TGI (SF-295 CNS): 3290 nM
- GI50 (HCT-15 colon): 461 nM
- TGI (HCT-15 colon): 1870 nM
- GI50 (CAKI-1 renal): 1510 nM
- TGI (CAKI-1 renal): 2940 nM
- GI50 (NCI-H522 lung): 589 nM
- TGI (NCI-H522 lung): 2050 nM
- GI50 (SW-620 colon): 611 nM
- TGI (SW-620 colon): 2300 nM
- GI50 (SF-268 CNS): 1610 nM
- TGI (SF-268 CNS): 3410 nM
- GI50 (A549 NSCLC): 1750 nM
- TGI (A549 NSCLC): 3650 nM
- GI50 (M14 melanoma): 1350 nM
- TGI (M14 melanoma): 3070 nM
- GI50 (CCRF-CEM leukemia): 315 nM
- TGI (CCRF-CEM leukemia): 1580 nM
- GI50 (U251 CNS): 1630 nM
- TGI (U251 CNS): 3020 nM
- GI50 (UACC-62 melanoma): 1310 nM
- TGI (UACC-62 melanoma): 2640 nM
- GI50 (SK-OV-3 ovarian): 5870 nM
- TGI (SK-OV-3 ovarian): 18500 nM
- GI50 (HS 578T breast): 2170 nM
- TGI (HS 578T breast): 7090 nM
- GI50 (DU-145 prostate): 1110 nM
- TGI (DU-145 prostate): 2580 nM
- GI50 (MALME-3M melanoma): 1840 nM
- TGI (MALME-3M melanoma): 3530 nM
- GI50 (LOX IMVI melanoma): 701 nM
- TGI (LOX IMVI melanoma): 2050 nM
- GI50 (TK-10 renal): 1550 nM
- TGI (TK-10 renal): 2930 nM
- GI50 (HT29 colon): 794 nM
- TGI (HT29 colon): 2260 nM
- GI50 (SNB-75 CNS): 1260 nM
- TGI (SNB-75 CNS): 2530 nM
- GI50 (OVCAR-5 ovarian): 1760 nM
- TGI (OVCAR-5 ovarian): 3780 nM
- GI50 (HCT-116 colon): 619 nM
- TGI (HCT-116 colon): 1980 nM
- GI50 (SF-539 CNS): 1660 nM
- TGI (SF-539 CNS): 3130 nM
- GI50 (786-0 renal): 841 nM
- TGI (786-0 renal): 2360 nM
- GI50 (NCI-H226 lung): 1550 nM
- TGI (NCI-H226 lung): 3070 nM
- GI50 (HCC-2998 colon): 1790 nM
- TGI (HCC-2998 colon): 3300 nM
- GI50 (IGROV1 ovarian): 1450 nM
- TGI (IGROV1 ovarian): 2970 nM
- GI50 (SR leukemia): 296 nM
- TGI (SR leukemia): 10100 nM
- GI50 (COLO 205 colon): 884 nM
- TGI (COLO 205 colon): 2320 nM
- GI50 (SK-MEL-28 melanoma): 1720 nM
- TGI (SK-MEL-28 melanoma): 3370 nM
- GI50 (OVCAR-8 ovarian): 1350 nM
- TGI (OVCAR-8 ovarian): 3480 nM
- GI50 (ACHN renal): 1280 nM
- TGI (ACHN renal): 2580 nM
- GI50 (A498 renal): 1670 nM
- TGI (A498 renal): 3250 nM
- GI50 (NCI-H460 lung): 1880 nM
- TGI (NCI-H460 lung): 4040 nM
- GI50 (RXF 393 renal): 1250 nM
- TGI (RXF 393 renal): 2590 nM
- GI50 (HOP-62 NSCLC): 1520 nM
- TGI (HOP-62 NSCLC): 3350 nM
- GI50 (PC-3 prostate): 1510 nM
- TGI (PC-3 prostate): 3120 nM
- GI50 (NCI/ADR-RES ovarian): 3040 nM
- TGI (NCI/ADR-RES ovarian): 12400 nM
- GI50 (MDA-MB-231 breast): 1490 nM
- TGI (MDA-MB-231 breast): 3070 nM
- GI50 (SN12C renal): 1360 nM
- TGI (SN12C renal): 3120 nM
- GI50 (BT-549 breast): 1290 nM
- TGI (BT-549 breast): 2920 nM
- GI50 (HOP-92 NSCLC): 1580 nM
- TGI (HOP-92 NSCLC): 3170 nM
- GI50 (OVCAR-4 ovarian): 1450 nM
- TGI (OVCAR-4 ovarian): 3350 nM
- GI50 (SNB-19 CNS): 2750 nM
- TGI (SNB-19 CNS): 11300 nM
- GI50 (UACC-257 melanoma): 1440 nM
- TGI (UACC-257 melanoma): 2900 nM
- GI50 (K-562 leukemia): 292 nM
- TGI (K-562 leukemia): 1530 nM
- GI50 (UO-31 renal): 1380 nM
- TGI (UO-31 renal): 2680 nM
- GI50 (SK-MEL-2 melanoma): 1350 nM
- TGI (SK-MEL-2 melanoma): 2810 nM
- GI50 (EKVX NSCLC): 1580 nM
- TGI (EKVX NSCLC): 3050 nM
- GI50 (KM12 colon): 2230 nM
- TGI (KM12 colon): 5070 nM
